# From paper PMC10023970 (The Journal of Biological Chemistry, 2023)
# Read-outs that look alike come from different tables or passages of the source.
# How the values were obtained:
# OSA = assay: cells
# U2OS = assay: cells; details: Homo sapiens, U2OS
# RD = assay: cells; details: Homo sapiens, RD
# Brag2Sec7-PH = Brag2Sec7-PH (Homo sapiens, UniProt Q6DN90); assay: GEF assay, […]GTPgammaS binding to Arf1, filter trapping; format: biochemical
# ASAP1 (full-length) = ASAP1 (full-length) (Mus musculus, UniProt Q9QWY8); assay: GAP assay, conversion of Arf1-GTP to Arf1-GDP; format: biochemical
# ASAP1 (full-length), sequence (Q9QWY8 whole entry): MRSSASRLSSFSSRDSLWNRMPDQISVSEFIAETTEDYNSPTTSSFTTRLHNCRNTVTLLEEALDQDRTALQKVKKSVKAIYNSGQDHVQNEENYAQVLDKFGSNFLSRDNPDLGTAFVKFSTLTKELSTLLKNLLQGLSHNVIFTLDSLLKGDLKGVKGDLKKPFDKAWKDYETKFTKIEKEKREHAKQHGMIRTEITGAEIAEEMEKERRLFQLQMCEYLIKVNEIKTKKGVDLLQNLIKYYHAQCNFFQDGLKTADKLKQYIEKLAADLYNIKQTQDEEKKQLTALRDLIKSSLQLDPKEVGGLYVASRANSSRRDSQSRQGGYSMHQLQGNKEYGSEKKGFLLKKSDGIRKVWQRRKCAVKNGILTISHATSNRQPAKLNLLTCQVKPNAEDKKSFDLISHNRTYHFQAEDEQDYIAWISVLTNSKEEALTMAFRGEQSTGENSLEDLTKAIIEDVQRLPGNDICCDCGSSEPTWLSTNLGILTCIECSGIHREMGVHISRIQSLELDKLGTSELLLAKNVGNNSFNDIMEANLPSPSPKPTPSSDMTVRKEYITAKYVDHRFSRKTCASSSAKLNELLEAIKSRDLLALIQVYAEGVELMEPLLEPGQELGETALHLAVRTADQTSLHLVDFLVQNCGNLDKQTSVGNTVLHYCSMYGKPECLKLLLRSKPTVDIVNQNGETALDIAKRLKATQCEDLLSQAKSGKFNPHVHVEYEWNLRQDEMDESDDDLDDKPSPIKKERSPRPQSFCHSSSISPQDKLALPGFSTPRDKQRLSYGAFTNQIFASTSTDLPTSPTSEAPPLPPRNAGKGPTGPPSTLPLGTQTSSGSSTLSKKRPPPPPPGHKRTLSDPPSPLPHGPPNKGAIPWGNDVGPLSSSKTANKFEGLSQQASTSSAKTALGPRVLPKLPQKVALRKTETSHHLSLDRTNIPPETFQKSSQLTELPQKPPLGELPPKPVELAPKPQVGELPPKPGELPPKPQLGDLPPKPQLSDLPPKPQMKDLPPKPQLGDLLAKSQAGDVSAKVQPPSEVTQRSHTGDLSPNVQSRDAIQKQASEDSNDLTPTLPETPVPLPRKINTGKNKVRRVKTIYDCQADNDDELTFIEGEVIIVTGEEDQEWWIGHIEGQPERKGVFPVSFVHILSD
# ASAP1PZA [1] = molecular target: T1, ASAP1PZA (Mus musculus, UniProt Q9QWY8); assay: GAP assay, conversion of Arf1-GTP to Arf1-GDP; format: biochemical
# T1 sequence (Q9QWY8 325-724 limits assumed): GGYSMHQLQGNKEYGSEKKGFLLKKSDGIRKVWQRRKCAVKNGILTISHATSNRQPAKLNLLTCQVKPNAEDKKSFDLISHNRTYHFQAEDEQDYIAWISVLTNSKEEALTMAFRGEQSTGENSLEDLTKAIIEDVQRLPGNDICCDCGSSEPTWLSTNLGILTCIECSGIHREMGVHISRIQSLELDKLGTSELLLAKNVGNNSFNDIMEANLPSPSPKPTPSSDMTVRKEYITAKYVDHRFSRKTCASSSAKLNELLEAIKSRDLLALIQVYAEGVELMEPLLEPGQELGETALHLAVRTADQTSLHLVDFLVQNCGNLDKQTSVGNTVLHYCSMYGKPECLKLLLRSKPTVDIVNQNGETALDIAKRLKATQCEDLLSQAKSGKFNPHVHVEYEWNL
# myrArf1 = details: NAV-2729 partitioned in LUVs; PBS, room temperature; not myristoylated
# C2C12 = assay: cells; details: Mus musculus
# NIH3T3 = assay: cells; details: Mus musculus
# SMS-CTR = assay: cells
# HeLa = assay: cells; details: Homo sapiens, HeLa, read-out: EC50 for cell killing (μM) / SecinH3
# MCF 10A = assay: cells; details: Homo sapiens, MCF-10A, read-out: EC50 for cell killing (μM) / SecinH3
# ASAP1PZA [2] = molecular target: T1, ASAP1PZA; assay: thermal shift, soluble fraction by SDS-PAGE; format: binding; details: 10 μM protein, no membrane
# [3] = read-out: EC50 for cell killing (μM) / Bragsin2
# [4] = read-out: EC50 for cell killing (μM) / NAV-2729
# [5] = read-out: EC50 for cell killing (μM) / SecinH3
# Brag2Sec7-PH, sequence (Q6DN90 512-885): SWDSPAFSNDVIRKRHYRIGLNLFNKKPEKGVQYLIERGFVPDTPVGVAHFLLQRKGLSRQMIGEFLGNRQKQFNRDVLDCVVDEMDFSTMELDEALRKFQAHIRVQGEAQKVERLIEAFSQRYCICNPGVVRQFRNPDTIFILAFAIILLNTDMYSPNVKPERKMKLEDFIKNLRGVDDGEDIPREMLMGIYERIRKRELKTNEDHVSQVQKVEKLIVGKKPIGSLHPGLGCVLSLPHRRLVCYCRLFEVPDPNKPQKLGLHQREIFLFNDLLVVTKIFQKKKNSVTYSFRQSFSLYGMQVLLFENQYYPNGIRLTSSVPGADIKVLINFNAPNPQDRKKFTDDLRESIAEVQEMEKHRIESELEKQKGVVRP
smiles,measurement,setting,value
COc1ccc2oc(C(F)(F)F)cc(=O)c2c1[N+](=O)[O-] [Bragsin2],EC50,OSA; [3],> 50 µM
same,EC50,U2OS; [3],> 50 µM
C[C@H]1CCC/C=C/[C@@H]2C[C@H](O)C[C@H]2[C@H](O)/C=C/C(=O)O1 [Brefeldin A],EC50,RD; read-out: EC50 for cell killing (μM) / Brefeldin A,0.006 ± 0.002 µM
O=c1cc(-c2ccc([N+](=O)[O-])cc2)[nH]c2c(-c3ccc(Cl)cc3)c(Cc3ccccc3)nn12 [NAV-2729],IC50,Brag2Sec7-PH,7.1 ± 2.5 µM
same,IC50,ASAP1 (full-length),12.2 ± 1.4 µM
same,IC50,ASAP1PZA [1],4.6 ± 0.9 µM
same,Kd,myrArf1,> 50 µM
same,EC50,"C2C12; C2C12, read-out: EC50 for cell killing (μM) / NAV-2729",11 µM
same,EC50,"NIH3T3; NIH3T3, read-out: EC50 for cell killing (μM) / NAV-2729",11 µM
same,EC50,RD; [4],8 µM
same,EC50,SMS-CTR; [4],11 µM
COc1nc(-c2ccc3c(c2)OCO3)n(-c2ccc(NC(=O)CSc3ccccc3)cc2)n1 [SecinH3],EC50,"C2C12; C2C12, read-out: EC50 for cell killing (μM) / SecinH3",> 50 µM
same,EC50,HeLa,> 50 µM
same,EC50,MCF 10A,> 50 µM
same,EC50,"NIH3T3; NIH3T3, read-out: EC50 for cell killing (μM) / SecinH3",> 50 µM
same,EC50,OSA; [5],> 50 µM
same,EC50,RD; [5],> 50 µM
same,EC50,SMS-CTR; [5],> 50 µM
same,EC50,U2OS; [5],> 50 µM
CCCCCCCC(=O)OC[C@H](COP(=O)(O)O[C@@H]1[C@H](O)[C@H](O)[C@@H](OP(=O)(O)O)[C@H](OP(=O)(O)O)[C@H]1O)OC(=O)CCCCCCC [diC8-PIP2],thermal shift at 200 μM,ASAP1PZA [2],~ 6 degree
